According to patent US6080755A, “1,9-diazabicyclo[4.3.0]nona-3,8-diene derivatives” (Wyeth Lederle Japan, Ltd., priority 1995, dated 2000):

Tested on: Isolated Rat Hearts
Assay: Cardioprotective Effect in Ischemia/Reperfusion Model of Isolated Rat Hearts
Set-up: species or system Male Sprague-Dawley rats
Conditions: 10^-5 mol of test compound in 0.04% DMSO; 25 min global ischemia, after reperfusion for 30 minutes
Procedure: Cardioprotective Effect in Ischemia/Reperfusion Model of Isolated Rat Hearts:
Male Sprague-Dawley rats (300-500 g) were used. The rats were anesthetized using 40 mg/kg of sodium pentobarbital (i.p.) after treating with heparin (i.v. 1000 U/kg). The hearts were excised and moved quickly to a Langendorlf apparatus where they were perfused with Krebs-Henseleit bicarbonate buffer (118 mM of NaCl; 4.7 mM of KCl; 2.55 mM of CaCl2; 1.18 mM of KH2 PO4; 24.88 mM of NaHCO3; 11.1 mM of glucose) bubbled with mixture gas of 95% oxygen and 5% carbon dioxide at a constant perfusion pressure (75 mmHg). The parameters of cardiac function were determined as follows.
The physiological saline-filled latex balloon was inserted into the left ventricle and connected to a pressure transducer for measurement of left ventricular pressure (LVP). The volume of the balloon was adjusted to produce an LV end-diastolic pressure at 5-10 mmHg. The heart rate was determined with a tachometer and coronary flow was determined with an extra-corporeal electromagnetic flow tube.
For the equilibration, the hearts were perfused for initial 15-20 minutes. Then, treatment with the test compounds was begun 15 minutes before the onset of ischemia. Global ischemia was initiated by shutting off the perfusate flow and this was maintained for 25 minutes. The hearts were submerged in 37° C. buffer during ischemia. Reperfusion was then begun with the test compounds and the hearts were allowed to recover for 30 minutes. The cardiac function was measured before the treatment of the test compounds, before ischemia and after reperfusion. The hearts were treated with 10^-5 mol of the test compounds dissolved in 0.04% of dimethylsulfoxide (DMSO), in comparison with the vehicle, i.e., 0.04% of DMSO alone, in the perfusate.
The cardioprotective effects of the test compounds were evaluated on the basis of the extent of recovery of LVP after reperfusion for 30 minutes.

6,8-Diethoxycarbonyl-3(or 4)-methy-1,9-diazabicyclo [4.3.0]nona-3,8-dien-7-ol [Compound No. 35]
LVDP(%): recovery of LVP, left ventricular developed pressure against the LVP before ischemia as 100%: 50.6%

CCOC(=O)C1=NN2CC(C)=C(C)CC2(C(=O)OCC)C1O (centres unmarked) [Compound No. 29, 6,8-Diethoxycarbonyl-3,4-dimethylbicyclo[4.3.0]-1,9-diazanona-3,8-dien-7-ol]
LVDP(%): recovery of LVP, left ventricular developed pressure against the LVP before ischemia as 100%: 44.2%

COC(=O)C1=NN2C(c3ccccc3)C=CC(c3ccccc3)C2(C(=O)OC)C1O (centres unmarked) [Compound No. 31, 6,8-Dimethoxycarbonyl-2,5-diphenyl-1,9-diazabicyclo [4.3.0]nona-3,8-dien-7-ol]
LVDP(%): recovery of LVP, left ventricular developed pressure against the LVP before ischemia as 100%: 85.1%

COC(=O)C1=NN2C(c3cccc([N+](=O)[O-])c3)C=CC(c3cccc([N+](=O)[O-])c3)C2(C(=O)OC)C1O (centres unmarked) [Compound No. 48, 6,8-Dimethoxycarbonyl-2,5-bis(3-nitrophenyl)-7-hydroxy-1,9-diazabicyclo[4.3.0]nona-3,8-diene]
LVDP(%): recovery of LVP, left ventricular developed pressure against the LVP before ischemia as 100%: 72.4%

COC(=O)C1=NN2C(c3ccc(C#N)cc3)C=CC(c3ccc(C#N)cc3)C2(C(=O)OC)C1O (centres unmarked) [Compound No. 50, 6,8-Dimethoxycarbonyl-2,5-di(4-cyano)phenyl-7-hydroxy-1,9-diazabicyclo[4.3.0]nona-3,8-diene]
LVDP(%): recovery of LVP, left ventricular developed pressure against the LVP before ischemia as 100%: 69.8%

COC(=O)C1=NN2C(c3ccc(C(C)=O)cc3)C=CC(c3ccc(C(C)=O)cc3)C2(C(=O)OC)C1O (centres unmarked) [Compound No. 51, 2,5-Bis-(4-acetylphenyl)-6,8-dimethoxycarbonyl-7-hydroxy-1,9-diazabicyclo[4.3.0]nona-3,8-diene]
LVDP(%): recovery of LVP, left ventricular developed pressure against the LVP before ischemia as 100%: 55.0%

COC(=O)C1=NN2C(c3ccc(C)cc3)C=CC(c3ccc(C)cc3)C2(C(=O)OC)C1O (centres unmarked) [Compound No. 52, 6,8-Dimethoxycarbonyl-2,5-di-p-tolyl-7-hydroxy-1,9-diazabicyclo[4.3.0]nona-3,8-diene]
LVDP(%): recovery of LVP, left ventricular developed pressure against the LVP before ischemia as 100%: 49.3%

COC(=O)C1=NN2C(c3ccc([N+](=O)[O-])cc3)C=CC(c3ccc([N+](=O)[O-])cc3)C2(C(=O)OC)C1O (centres unmarked) [Compound No. 53, 6,8-Dimethoxycarbonyl-2,5-di(4-nitro)phenyl-7-hydroxy-1,9-diazabicyclo[4.3.0]nona-3,8-diene]
LVDP(%): recovery of LVP, left ventricular developed pressure against the LVP before ischemia as 100%: 60.0%

CCOC(=O)C1=NN2CC(C)=C(C)CC2(C(=O)OCC)C1N (centres unmarked) [Compound No. 81, 7-Amino-6,8-diethoxycarbonyl-3,4-dimethyl-1,9-diazabicyclo[4.3.0]nona-3,8-diene]
LVDP(%): recovery of LVP, left ventricular developed pressure against the LVP before ischemia as 100%: 56.2%

CCOC(=O)C1=NN2CC(C)=C(C)CC2(C(=O)OCC)C1S (centres unmarked) [Compound No. 82, 6,8-Diethoxycarbonyl-3,4-dimethyl-7-mercapto-1,9-diazabicyclo[4.3.0]nona-3,8-diene]
LVDP(%): recovery of LVP, left ventricular developed pressure against the LVP before ischemia as 100%: 61.5%

COC(=O)C1=NN2C(c3ccccc3)C=CC(c3ccccc3)C2(C(=O)OC)C1N (centres unmarked) [Compound No. 94, 7-Amino-6,8-dimethoxycarbonyl-2,5-diphenyl-1,9-diazabicyclo[4.3.0]nona-3,8-diene]
LVDP(%): recovery of LVP, left ventricular developed pressure against the LVP before ischemia as 100%: 73.5%

CCCOC(=O)C1=NN2CC(C)=C(C)CC2(C(=O)OCCC)C1O (centres unmarked) [Compound No. 124, 3,4-Dimethyl-6,8-dipropoxycarbonyl-7-hydroxy-1,9-diazabicyclo[4.3.0]nona-3,8-diene]
LVDP(%): recovery of LVP, left ventricular developed pressure against the LVP before ischemia as 100%: 84.0%

CCCOC(=O)C1=NN2C(c3ccccc3)C=CC(c3ccccc3)C2(C(=O)OCC)C1O (centres unmarked) [Compound No. 139, 2,5-Diphenyl-6-ethoxycarbonyl-7-hydroxy-8-propoxycarbonyl-1,9-diazabicyclo[4.3.0]nona-3,8-diene]
LVDP(%): recovery of LVP, left ventricular developed pressure against the LVP before ischemia as 100%: 62.5%

CCN(CC)C(=O)C1=NN2C(c3ccccc3)C=CC(c3ccccc3)C2(C(=O)OC)C1O (centres unmarked) [Compound No. 173, 8-Diethylcarbamoyl-2,5-diphenyl-7-hydroxy-6-methoxycarbonyl-1,9-diazabicyclo[4.3.0]nona-3,8-diene]
LVDP(%): recovery of LVP, left ventricular developed pressure against the LVP before ischemia as 100%: 61.0%
